The record followed here is US8546376B2, “Pharmaceutical compounds” (Almac Discovery Limited, priority 2009, dated 2013).

Some results are limits rather than exact numbers.

The test system of experiment [1] is PC3 and/or LnCaP cell lines. Put plainly: In vitro cell proliferation assay (Cell Titre Glo). Type of experiment: cell-based. To be noted: Homo sapiens, 72 hours, read-out: inhibition of proliferation IC50. The protocol:
Testing of the compounds was also performed using in vitro cell proliferation assays:
Cell Titre Glo (Promega) is a highly sensitive homogeneous reagent used to determine the viability of cells. The reagent uses a stable form of luciferase to measure ATP as an output of viability. The luminescent values generated in the assay are directly proportional to the number of viable cells in your assay.
The following materials were used: White, clear bottomed 96 well assay plates (Costar); Cell titre Glo reagents; LnCaP (ECACC) cells grown in RPMI medium (Invitrogen) supplemented with 10 mM HEPES (Invitrogen), 1 mM Sodium pyruvate (Invitrogen), 2 mM L-Glutamine (Invitrogen) and 10% Foetal calf serum (Invitrogen); PC3 (ECACC) cells grown in RPMI medium supplemented with 10% Foetal calf serum (Invitrogen); Trypsin (Invitrogen); PBS (Invitrogen); Biotek Synergy 4 Hybrid Plate reader; 96 well plate shaker (Stuart SSL5); Eppendorf 5414 desk-top centrifuge; Beckman Coulter cell counter Z1 single threshold system.
Prostate cell lines, PC3 and LnCaP, were washed, detached and re-suspended in their respective fresh media. The cells were pelleted by centrifugation (Eppendorf 5414) and spent supernatant discarded. The cells were re-suspended by vortex mixing, counted and seeded into clear bottom white 96 well plates at a density of 5000 cells per well. The cells were incubated (Sanyo) overnight at 37° C. ([…]), and next day treated with increasing concentrations of test compound formulated in fresh medium. The plates were returned to the incubator for 72 hours. […]
The cell viability post compound treatment was determined by the luminescent intensity emitted from the drug treated wells in the plate. In brief, the assay plate was placed in the Biotex Synergy 4 Hybrid plate reader and the luminescence read in each well. The compound treated wells were compared to vehicle treated wells and the % inhibition of cell viability calculated.
The data was analysed using GraphPad Prism, with IC50 values generated using non-linear regression of the data set.

A further experiment relates to AKT phosphorylation. Put plainly: Phosphorylation status of AKT/PI3K pathway members via western blotting. It is filed as cell-based. The conditions noted are these: for 48 h at 10 μM. The text has this: Analysis of Compound Effects on AKT Signalling Pathways
Phosphorylation status of various members of the AKT/PI3K pathway were investigated via western blotting.
Materials Required for this Assay: 20× Running buffer (Invitrogen); Rainbow marker ladder (GE Healthcare); Reducing buffer (Invitrogen); 20× Transfer buffer (Invitrogen); 4-12% Bis-Tris Gels (Invitrogen); Filter paper (Whatman); Nitrocellulose (Amersham); ECL plus detection reagents (GE Healthcare); Radiographic film (Kodak); Biorad Protein determination reagent (Biorad); AKT pathway signalling antibodies (Cell Signalling)
LnCaP and PC3 cell lines were washed, detached and re-suspended in fresh medium. They were seeded in 90 mm^2 dishes and incubated overnight ([…]/5% CO2) to allow adherence. […]
The medium was removed and the cells placed on ice and washed in PBS. […] The resultant supernatant was assayed for protein content using the Bradford method (Biorad) and equal quantities of protein calculated and heated in sample reducing buffer to 95° C. for ten minutes. […]
The membranes were used to determine difference in total AKT, pSer473 AKT, pGSK3β and total GSK3β (all sourced from Cell Signalling). […] The membranes were washed three times in PBS and incubated with the respective secondary antibodies (Sigma Aldrich) for two hours and the proteins were detected using ECL plus detection reagents (GE Healthcare).
For orientation: A western blot detects proteins with antibodies after separation by electrophoresis.

For another experiment, the target named is T1, AKT2 (Homo sapiens, UniProt P31751).
T1 construct: purchased SignalChem
T1 sequence (P31751 whole entry): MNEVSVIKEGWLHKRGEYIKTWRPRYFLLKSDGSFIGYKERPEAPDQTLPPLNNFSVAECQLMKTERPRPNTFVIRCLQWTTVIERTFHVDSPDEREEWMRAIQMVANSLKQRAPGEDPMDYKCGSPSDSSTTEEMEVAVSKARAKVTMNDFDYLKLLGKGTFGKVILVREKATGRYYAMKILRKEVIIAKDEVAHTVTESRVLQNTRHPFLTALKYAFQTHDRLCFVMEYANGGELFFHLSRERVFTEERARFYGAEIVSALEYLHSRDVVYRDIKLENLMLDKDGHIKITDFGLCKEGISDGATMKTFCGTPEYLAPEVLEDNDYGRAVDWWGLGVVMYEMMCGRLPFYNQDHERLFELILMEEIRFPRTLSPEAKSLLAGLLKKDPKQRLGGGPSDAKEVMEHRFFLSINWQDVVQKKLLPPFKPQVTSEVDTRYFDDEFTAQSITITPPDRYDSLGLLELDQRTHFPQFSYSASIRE
The experiment in a line: AKT Kinase Assay (IMAP fluorescent polarisation) vs AKT2. To be noted: activated AKT2, FAM Crosstide substrate. Type of experiment: biochemical. Summed up: (§1)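 IC50 values came from non-linear regression of % inhibition relative to vehicle, measured by IMAP fluorescence polarisation (485/528 nm) after a 1 h room-temperature reaction of FAM-Crosstide and ATP. Each activated isoform was first exposed to compound for 45 min across fourteen half-log doses.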

A further experiment has as its target T2, AKT1 (Homo sapiens, UniProt P31749).
T2 construct: purchased SignalChem
The experiment in a line: AKT Kinase Assay (IMAP fluorescent polarisation) vs AKT1. It is filed as biochemical. The conditions noted are these: activated AKT1, FAM Crosstide substrate. In short, it runs like this:
as §1

Another experiment has as its target T3, AKT3 (Homo sapiens, UniProt Q9Y243).
T3 construct: purchased SignalChem
Put plainly: AKT Kinase Assay (IMAP fluorescent polarisation) vs AKT3. It is filed as biochemical. The conditions noted are these: activated AKT3, FAM Crosstide substrate. In short, it runs like this:
as §1

T3 sequence (Q9Y243 whole entry): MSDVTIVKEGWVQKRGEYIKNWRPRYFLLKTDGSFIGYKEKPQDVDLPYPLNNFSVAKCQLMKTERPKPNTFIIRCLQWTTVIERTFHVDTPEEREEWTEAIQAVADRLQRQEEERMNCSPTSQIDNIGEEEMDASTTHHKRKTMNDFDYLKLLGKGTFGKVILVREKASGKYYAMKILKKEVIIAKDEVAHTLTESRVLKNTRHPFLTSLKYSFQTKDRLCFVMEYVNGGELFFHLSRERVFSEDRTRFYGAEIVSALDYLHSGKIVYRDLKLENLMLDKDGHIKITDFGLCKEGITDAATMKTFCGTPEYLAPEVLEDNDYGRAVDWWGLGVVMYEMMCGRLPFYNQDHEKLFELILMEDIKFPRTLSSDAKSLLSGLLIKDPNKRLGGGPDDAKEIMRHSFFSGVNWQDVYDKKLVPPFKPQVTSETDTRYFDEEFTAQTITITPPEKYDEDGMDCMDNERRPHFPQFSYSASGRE
T2 sequence (P31749 whole entry): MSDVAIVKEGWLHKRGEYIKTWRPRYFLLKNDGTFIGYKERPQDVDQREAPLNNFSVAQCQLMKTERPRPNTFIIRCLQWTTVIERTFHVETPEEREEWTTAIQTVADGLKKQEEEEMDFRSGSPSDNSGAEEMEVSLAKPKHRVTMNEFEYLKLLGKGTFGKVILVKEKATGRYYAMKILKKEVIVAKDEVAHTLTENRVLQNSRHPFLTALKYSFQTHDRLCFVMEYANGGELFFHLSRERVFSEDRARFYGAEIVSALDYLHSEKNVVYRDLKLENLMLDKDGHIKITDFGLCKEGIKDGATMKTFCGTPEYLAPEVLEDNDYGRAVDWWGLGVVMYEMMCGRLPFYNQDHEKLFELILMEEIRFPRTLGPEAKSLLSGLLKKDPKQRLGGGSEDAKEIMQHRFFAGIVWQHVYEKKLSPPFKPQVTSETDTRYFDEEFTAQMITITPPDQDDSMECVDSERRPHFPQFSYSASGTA

As for `Cl.NC1(c2ccc(-c3c(-c4ccccc4)oc4c(=O)[nH]ccc4c3=O)cc2)CCC1` [Example 40, 3-[4-(1-Amino-cyclobutyl)-phenyl]-2-phenyl-7H-pyrano[2,3-c]pyridine-4,8-dione hydrochloride], the IC50 in experiment [1] was under 10 µM; at AKT2 it was at most 1 µM; on AKT1, at most 1 µM; on AKT3, 1 to 10 µM. Further, the “inhibition of AKT phosphorylation” value in the experiment with AKT phosphorylation is “inhibition of AKT phosphorylation”.
For `NC1(c2ccc(-c3c(-c4ccccc4)oc4c(cc(Cl)c5nc[nH]c54)c3=O)cc2)CCC1` [Example 44, 7-[4-(1-Amino-cyclobutyl)-phenyl]-4-chloro-8-phenyl-1H-chromeno[7,8-d]imidazol-6-one], the IC50 was under 10 µM in experiment [1], at most 1 µM at AKT2, at most 1 µM at AKT1 and at most 1 µM at AKT3.
As for `COc1ccc2c(=O)c(-c3ccc(C4(N)CCC4)cc3)c(-c3ccccc3)oc2c1OC` [Example 4, 3-[4-(1-Amino-cyclobutyl)-phenyl]-7,8-dimethoxy-2-phenyl-chromen-4-one], the IC50 was under 10 µM in experiment [1], at most 1 µM at AKT2, 1 to 10 µM on AKT1 and over 10 µM at AKT3.
On to `CN1CCN(c2ccc3oc(-c4ccccc4)c(-c4ccc(C5(N)CCC5)cc4)c(=O)c3c2)CC1` [Example 20, 3-[4-(1-Amino-cyclobutyl)-phenyl]-6-(4-methyl-piperazin-1-yl)-2-phenyl-chromen-4-one], for which the “inhibition of AKT phosphorylation” value in the experiment with AKT phosphorylation is listed as “inhibition of AKT phosphorylation”. The IC50 on AKT2 was at most 1 µM; on AKT1 it was 1 to 10 µM; at AKT3, over 10 µM.
